From PMC8348562, “Potential Assessment of UGT2B17 Inhibition by Salicylic Acid in Human Supersomes In Vitro” (Molecules, 2021)

Columns and labels:
UGT2B17 = biological target: T1, UGT2B17 (Homo sapiens, UniProt O75795); experiment: HPLC testosterone glucuronidation assay in recombinant supersomes, Lineweaver-Burk analysis at […] salicylic acid; format: biochemical
T1 construct: recombinant human UGT2B17 supersomes (insect cells infected with baculovirus)
T1 sequence (O75795 24-530): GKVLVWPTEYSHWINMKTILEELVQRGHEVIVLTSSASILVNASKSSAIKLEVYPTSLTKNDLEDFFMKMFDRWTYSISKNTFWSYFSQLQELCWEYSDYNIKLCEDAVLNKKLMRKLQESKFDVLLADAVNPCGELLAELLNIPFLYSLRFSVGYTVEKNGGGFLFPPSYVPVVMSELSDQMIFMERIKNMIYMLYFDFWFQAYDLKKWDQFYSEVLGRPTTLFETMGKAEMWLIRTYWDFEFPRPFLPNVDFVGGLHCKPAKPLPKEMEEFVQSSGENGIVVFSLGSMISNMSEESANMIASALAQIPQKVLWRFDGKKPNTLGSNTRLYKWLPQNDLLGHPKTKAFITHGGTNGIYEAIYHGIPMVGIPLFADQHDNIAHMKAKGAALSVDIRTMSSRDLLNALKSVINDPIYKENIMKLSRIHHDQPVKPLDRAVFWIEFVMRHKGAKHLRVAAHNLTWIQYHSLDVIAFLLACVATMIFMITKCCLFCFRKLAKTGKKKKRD

purified protein = substrate: C[C@]12CC[C@H]3[C@@H](CCC4=CC(=O)CC[C@@]43C)[C@@H]1CC[C@@H]2O; experiment: purified protein; details: UDPGA; MgCl2

**Q.** For O=C(O)c1ccccc1O [salicylic acid], which inhibition mode (UGT2B17) is on record?
**A.** The inhibition mode was “UGT2B17 enzyme activity was inhibited uncompetitively by salicylic acid based on the in vitro inhibition study in human supersomes”.

B1: UGT2B17 (Homo sapiens) (protein)
chain: GKVLVWPTEYSHWINMKTILEELVQRGHEVIVLTSSASILVNASKSSAIKLEVYPTSLTKNDLEDFFMKMFDRWTYSISKNTFWSYFSQLQELCWEYSDYNIKLCEDAVLNKKLMRKLQESKFDVLLADAVNPCGELLAELLNIPFLYSLRFSVGYTVEKNGGGFLFPPSYVPVVMSELSDQMIFMERIKNMIYMLYFDFWFQAYDLKKWDQFYSEVLGRPTTLFETMGKAEMWLIRTYWDFEFPRPFLPNVDFVGGLHCKPAKPLPKEMEEFVQSSGENGIVVFSLGSMISNMSEESANMIASALAQIPQKVLWRFDGKKPNTLGSNTRLYKWLPQNDLLGHPKTKAFITHGGTNGIYEAIYHGIPMVGIPLFADQHDNIAHMKAKGAALSVDIRTMSSRDLLNALKSVINDPIYKENIMKLSRIHHDQPVKPLDRAVFWIEFVMRHKGAKHLRVAAHNLTWIQYHSLDVIAFLLACVATMIFMITKCCLFCFRKLAKTGKKKKRD
**Q.** Which Km (purified protein) does the source give for B1 here?
**A.** The Km was 259.74 µM.
